Laboratory results from US20080292736A1, “Bioavailability enhancing activity of carum carvi extracts and fractions thereof” (COUNCIL OF SCIENTIFIC AND INDUSTRIAL RESEARCH, priority 2001, published 2008).
Like-named read-outs stand apart in the source and are kept apart here.

Tests used:
[1] = rat, in vivo; for % Enhancement in bioavailability, Carum carvi (Cc) Extr.: 30 mg/kg; for % Enhancement in bioavailability, BE from Zingiber officinale: 35 mg/kg
Procedure: (§1) Bioenhancers of Zingiber officinale, mean 50% alcoholic extract of fresh ginger. The doses remain unchanged whether the bioenhancers are used alone or in combination.
(§2) The amount of bioenhancers used are given below: • i. from Carum carvi: extract 30 mg/kg body weight (rats); Fraction No. 1: 15 mg/kg body weight (rats) • ii. piperine 8 mg/kg body weight (rats) • iii. Zingiber officinale: 35 mg/kg body weight (rats) • The drug used was rifampicin (40 mg/kg). The drug alone or in combination with the bioenhancers was administered to rats as given below: • Group 1: control • Group 2: Rifampicin alone • Group 3: bioenhancer alone • Group 4: Rifampicin with Carum carvi bioenhancer
(§3) Blood from the control/treated animals at predetermined intervals (0-24 hours) (total 14 timings). Rifampicin was extracted from the blood (plasma) using dichloromethane. […] The mobile phase was phosphate buffer:acetonitrile in a ratio of 40:60, and a flow rate of 1.0 ml/min.

[2] = Enhancement of bioavailability of drugs given to rats with bioenhancers (plasma drug level by HPLC); conditions: for % Enhancement in bioavailability, BE from Carum carvi: drug with Carum carvi bioenhancer (aqueous or 50% alcoholic extract 30 mg/kg or Fraction No. 1 15 mg/kg), drug dose mg/kg; for % Enhancement in bioavailability, Carum carvi + Zingiber officinale: drug with Carum carvi bioenhancer and Zingiber officinale 35 mg/kg; for % Enhancement in bioavailability, Carum carvi + Zingiber officinale / % Enhancement in bioavailability, Carum carvi + Piperine / % Enhancement in bioavailability, BE from Zingiber officinale / % Enhancement in bioavailability, Piperine as BE: drug dose as in row; for % Enhancement in bioavailability, Carum carvi + Piperine: drug with Carum carvi bioenhancer and piperine 8 mg/kg; for % Enhancement in bioavailability, BE from Zingiber officinale: drug with Zingiber officinale 50% alcoholic extract of fresh ginger 35 mg/kg; for % Enhancement in bioavailability, Piperine as BE: drug with piperine 8 mg/kg
Procedure: as §1, §2, §3

Row | Compound | % Enhancement in bioavailability, Carum carvi + Zingiber officinale, Extr. (Cc) [1] | % Enhancement in bioavailability, Carum carvi + Zingiber officinale, Frac 1. (Cc) [1] | % Enhancement in bioavailability, Carum carvi + piperine, Extr. (Cc) [1] | % Enhancement in bioavailability, Carum carvi + piperine, Frac 1. (Cc) [1] | % Enhancement in bioavailability, Carum carvi (Cc) Extr. [1] | % Enhancement in bioavailability, BE from Zingiber officinale [1] | % Enhancement in bioavailability, BE from Carum carvi [1] | % Enhancement in bioavailability, Carum carvi + Piperine [1] [%] | % Enhancement in bioavailability, Carum carvi + Zingiber officinale [1] [%] | % Enhancement in bioavailability, BE from Zingiber officinale [2] [%] | % Enhancement in bioavailability, Piperine as BE [2] | other results
1 | COc1cc(/C=C/C(=O)CC(=O)/C=C/c2ccc(O)c(OC)c2)ccc1O [Curcumin] | 43% | 52% | 42% | 51% | 40% | 49% |  |  |  |  |  | 
2 | CC1=C(C(=O)O)N2C(=O)[C@@H](NC(=O)[C@H](N)c3ccc(O)cc3)[C@H]2SC1 [Cefadroxil] |  |  |  |  |  | 68% | 67% | 95 | 85 |  |  | 
3 | [Se] [Selenium] | nil | nil | Nil | nil | Nil | Nil |  |  |  |  |  | 
4 | CC[C@H]1OC(=O)[C@H](C)[C@@H](O[C@H]2C[C@@](C)(OC)[C@@H](O)[C@H](C)O2)[C@H](C)[C@@H](O[C@@H]2O[C@H](C)C[C@H](N(C)C)[C@H]2O)[C@](C)(O)C[C@@H](C)C(=O)[C@H](C)[C@@H](O)[C@]1(C)O [Erythromycin] |  |  |  |  |  | 68% | 70% | 100 | 105 |  |  | 
5 | NCC[C@H](O)C(=O)N[C@@H]1C[C@H](N)[C@@H](O[C@H]2O[C@H](CN)[C@@H](O)[C@H](O)[C@H]2O)[C@H](O)[C@H]1O[C@H]1O[C@H](CO)[C@@H](O)[C@H](N)[C@H]1O [Amikacin] |  |  |  |  |  | Nil | 85% | 100 | 92 |  |  | 
6 | O=C(O)Cc1ccccc1Nc1c(Cl)cccc1Cl [Diclofenac] |  |  |  |  |  | 90% | Nil | 100 | 95 |  |  | 
7 | Nc1nc2ncc(CNc3ccc(C(=O)N[C@@H](CCC(=O)O)C(=O)O)cc3)nc2c(=O)[nH]1 [Folio Acid] | nil | nil | nil | nil | Nil | nil |  |  |  |  |  | 
8 | [Cu] [Copper] | Nil | Nil | nil | Nil | nil | nil |  |  |  |  |  | 
9 | Silymarin | 38% | 41% | 36% | 45% | 31% | 33% |  |  |  |  |  | 
10 | CC[C@H]1OC(=O)[C@H](C)[C@@H](O[C@H]2C[C@@](C)(OC)[C@@H](O)[C@H](C)O2)[C@H](C)[C@@H](O[C@@H]2O[C@H](C)C[C@H](N(C)C)[C@H]2O)[C@](C)(O)C[C@@H](C)/C(=N\OCOCCOC)[C@H](C)[C@@H](O)[C@]1(C)O [Roxythromycin] |  |  |  |  |  | 72% | 65% | 95 | 98 |  |  | 
11 | Cc1onc(-c2ccccc2Cl)c1C(=O)N[C@@H]1C(=O)N2[C@@H]1SC(C)(C)[C@@H]2C(=O)O [Cloxacillin] |  |  |  |  |  | 76% | 110% | 95 | 110 |  |  | 
12 | CC[C@H](C)[C@H](N)C(=O)O [Isoleucine] | 42% | 50% | 37% | 44% | 28% | 15% |  |  |  |  |  | 
13 | C[C@@H]1O[C@@H](OC[C@H]2O[C@@H](Oc3c(-c4ccc(O)c(O)c4)oc4cc(O)cc(O)c4c3=O)[C@H](O)[C@@H](O)[C@@H]2O)[C@H](O)[C@H](O)[C@H]1O [Rutin] | 34% | 42% | 36% | 40% | 34% | 42% |  |  |  |  |  | 
14 | Cc1nnc2n1-c1ccc(Cl)cc1C(c1ccccc1)=NC2 [Alprazolam] |  |  |  |  |  |  |  |  |  | 76 | 65% | % Enhancement in bioavailability, BE from Carum carvi [2]: Nil; % Enhancement in bioavailability, Carum carvi + Zingiber officinale [2]: 80%; % Enhancement in bioavailability, Carum carvi + Piperine [2]: 70%
15 | CC(=O)N1CCN(c2ccc(OCC3COC(Cn4ccnc4)(c4ccc(Cl)cc4Cl)O3)cc2)CC1 (stereo not drawn) [Ketoconazole] |  |  |  |  |  |  |  |  |  | 125 | 105% | % Enhancement in bioavailability, BE from Carum carvi [2]: 55%; % Enhancement in bioavailability, Carum carvi + Zingiber officinale [2]: 96%; % Enhancement in bioavailability, Carum carvi + Piperine [2]: 100%
16 | CN/C(=N/CCSCc1nc[nH]c1C)NC#N [Cimetidine] |  |  |  |  |  |  |  |  |  | 98 | nil | % Enhancement in bioavailability, BE from Carum carvi [2]: 72%; % Enhancement in bioavailability, Carum carvi + Zingiber officinale [2]: 100%; % Enhancement in bioavailability, Carum carvi + Piperine [2]: 84%
17 | CN(Cc1cnc2nc(N)nc(N)c2n1)c1ccc(C(=O)N[C@@H](CCC(=O)O)C(=O)O)cc1 [Methotrexate] |  |  |  |  |  |  |  |  |  | 87 | 65% | % Enhancement in bioavailability, BE from Carum carvi [2]: 76%; % Enhancement in bioavailability, Carum carvi + Zingiber officinale [2]: 102%; % Enhancement in bioavailability, Carum carvi + Piperine [2]: 89%
18 | CC1=C(/C=C/C(C)=C/C=C/C(C)=C/C=C/C=C(C)/C=C/C=C(C)/C=C/C2=C(C)CCCC2(C)C)C(C)(C)CCC1 [B-carotene] |  |  |  |  |  |  |  |  |  | 35 | 29% | % Enhancement in bioavailability, Carum carvi (Cc) Frac 1. ([2]; nutraceutical with Carum carvi Fraction No. 1 15 mg/kg): 55%; % Enhancement in bioavailability, Carum carvi + Zingiber officinale, Frac 1. (Cc) ([2]; nutraceutical with Carum carvi Fraction No. 1 and Zingiber officinale): 72%; % Enhancement in bioavailability, Carum carvi + piperine, Frac 1. (Cc) ([2]; nutraceutical with Carum carvi Fraction No. 1 and piperine): 59%; % Enhancement in bioavailability, Carum carvi (Cc) Extr. ([2]; nutraceutical with Carum carvi extract 30 mg/kg): 47%; % Enhancement in bioavailability, Carum carvi + Zingiber officinale, Extr. (Cc) ([2]; nutraceutical with Carum carvi extract and Zingiber officinale): 63%; % Enhancement in bioavailability, Carum carvi + piperine, Extr. (Cc) ([2]; nutraceutical with Carum carvi extract and piperine): 45%
19 | CCc1cc(C(N)=S)ccn1 [Ethionamide] |  |  |  |  |  |  |  |  |  | 56 | 45% | % Enhancement in bioavailability, BE from Carum carvi [2]: 68%; % Enhancement in bioavailability, Carum carvi + Zingiber officinale [2]: 70%; % Enhancement in bioavailability, Carum carvi + Piperine [2]: 65%
